Measured values taken from patent publication US20160378912A1, “STRUCTURE-BASED MODELING AND TARGET-SELECTIVITY PREDICTION” (EPIGENETX, LLC, priority 2013, published 2016).

Key:
HDLP = settings: CTS; cited from earlier work
HDAC isoforms = test: HDAC inhibition profiled over several HDAC isoforms (experimental); type: biochemical, human
HIV-RT K103N = HIV-RT K103N (Human immunodeficiency virus type 1 group M subtype B, UniProt P04585, K690N); settings: Rotili et al. 2012; cited from earlier work
HIV-RT V106A = HIV-RT V106A (Human immunodeficiency virus type 1 group M subtype B, UniProt P04585, V693A); settings: Rotili et al. 2012; cited from earlier work
HIV-RT L100I = HIV-RT L100I (Human immunodeficiency virus type 1 group M subtype B, UniProt P04585, L687I); settings: Rotili et al. 2012; cited from earlier work
HIV-RT Y181I = HIV-RT Y181I (Human immunodeficiency virus type 1 group M subtype B, UniProt P04585, Y768I); settings: Rotili et al. 2012; cited from earlier work
HIV-RT Y188L = HIV-RT Y188L (Human immunodeficiency virus type 1 group M subtype B, UniProt P04585, Y775L); settings: Rotili et al. 2012; cited from earlier work
HIV-RT WT = HIV-RT WT (Human immunodeficiency virus type 1 group M subtype B, UniProt P04585); settings: Rotili et al. 2012; cited from earlier work
HDAC9 = HDAC9 (Homo sapiens, UniProt Q9UKV0); settings: MTS inhibitors; cited from earlier work
HDAC4 = HDAC4 (Homo sapiens, UniProt P56524); settings: MTS inhibitors; cited from earlier work
HDAC7 = biological target: T1, HDAC7 (Homo sapiens, UniProt Q8WUI4); settings: MTS inhibitors; cited from earlier work
T1 sequence (Q8WUI4 1-952): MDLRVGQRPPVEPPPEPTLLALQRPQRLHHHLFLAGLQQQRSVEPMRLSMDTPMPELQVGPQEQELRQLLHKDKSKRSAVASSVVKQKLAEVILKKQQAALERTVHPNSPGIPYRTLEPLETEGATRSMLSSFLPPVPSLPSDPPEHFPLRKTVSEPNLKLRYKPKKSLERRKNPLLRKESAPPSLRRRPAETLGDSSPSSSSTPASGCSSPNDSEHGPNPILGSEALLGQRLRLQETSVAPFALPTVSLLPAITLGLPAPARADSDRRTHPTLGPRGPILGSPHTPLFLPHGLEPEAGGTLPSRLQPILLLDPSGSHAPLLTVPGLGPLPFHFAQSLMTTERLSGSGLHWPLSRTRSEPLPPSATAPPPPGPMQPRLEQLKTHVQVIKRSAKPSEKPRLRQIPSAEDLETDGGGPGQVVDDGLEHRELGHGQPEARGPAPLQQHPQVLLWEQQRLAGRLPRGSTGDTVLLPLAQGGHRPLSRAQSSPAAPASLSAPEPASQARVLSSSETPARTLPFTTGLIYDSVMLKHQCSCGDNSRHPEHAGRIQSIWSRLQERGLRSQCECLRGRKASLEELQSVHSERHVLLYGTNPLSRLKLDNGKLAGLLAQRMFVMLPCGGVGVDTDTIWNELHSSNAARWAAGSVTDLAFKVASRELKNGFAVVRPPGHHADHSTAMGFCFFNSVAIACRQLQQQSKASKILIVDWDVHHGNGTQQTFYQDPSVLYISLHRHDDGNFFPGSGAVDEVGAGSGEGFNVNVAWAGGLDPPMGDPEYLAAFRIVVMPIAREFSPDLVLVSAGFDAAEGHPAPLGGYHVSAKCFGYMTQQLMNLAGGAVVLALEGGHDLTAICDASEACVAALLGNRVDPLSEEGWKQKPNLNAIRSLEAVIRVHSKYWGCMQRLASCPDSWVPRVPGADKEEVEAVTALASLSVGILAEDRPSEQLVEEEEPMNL

HDAC5 = HDAC5 (Homo sapiens, UniProt Q9UQL6); settings: MTS inhibitors, HDAC5; cited from earlier work
HDAC5, sequence (Q9UQL6 whole entry): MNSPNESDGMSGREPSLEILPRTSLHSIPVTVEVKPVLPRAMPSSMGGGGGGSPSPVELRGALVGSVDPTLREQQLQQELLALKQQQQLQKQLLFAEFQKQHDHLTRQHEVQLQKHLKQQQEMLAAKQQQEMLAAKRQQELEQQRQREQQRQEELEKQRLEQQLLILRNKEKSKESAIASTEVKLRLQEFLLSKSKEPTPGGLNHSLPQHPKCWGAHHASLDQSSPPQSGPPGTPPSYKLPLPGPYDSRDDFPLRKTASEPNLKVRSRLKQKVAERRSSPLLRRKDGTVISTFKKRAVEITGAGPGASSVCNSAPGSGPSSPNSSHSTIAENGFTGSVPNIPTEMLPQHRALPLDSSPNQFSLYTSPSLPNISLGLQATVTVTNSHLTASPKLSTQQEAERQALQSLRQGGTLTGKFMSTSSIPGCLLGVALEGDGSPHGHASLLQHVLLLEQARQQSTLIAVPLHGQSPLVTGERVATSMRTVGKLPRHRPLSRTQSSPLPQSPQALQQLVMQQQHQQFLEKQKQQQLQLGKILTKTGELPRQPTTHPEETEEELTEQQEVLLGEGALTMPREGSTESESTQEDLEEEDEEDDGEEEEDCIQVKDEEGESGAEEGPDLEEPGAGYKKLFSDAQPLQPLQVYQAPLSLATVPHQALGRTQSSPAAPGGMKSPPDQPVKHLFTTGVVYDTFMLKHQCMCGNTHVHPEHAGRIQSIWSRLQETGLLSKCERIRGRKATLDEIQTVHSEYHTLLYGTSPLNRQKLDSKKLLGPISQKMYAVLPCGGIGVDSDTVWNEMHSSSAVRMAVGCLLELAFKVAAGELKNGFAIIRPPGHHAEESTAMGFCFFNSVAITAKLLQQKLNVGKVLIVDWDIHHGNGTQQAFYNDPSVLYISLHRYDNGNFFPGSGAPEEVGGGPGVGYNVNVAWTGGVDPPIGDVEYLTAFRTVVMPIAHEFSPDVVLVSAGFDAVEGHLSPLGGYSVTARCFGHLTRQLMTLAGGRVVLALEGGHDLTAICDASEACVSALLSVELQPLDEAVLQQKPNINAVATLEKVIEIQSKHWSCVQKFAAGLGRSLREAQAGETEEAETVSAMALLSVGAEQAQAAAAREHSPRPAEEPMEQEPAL

HDAC4, sequence (P56524 whole entry): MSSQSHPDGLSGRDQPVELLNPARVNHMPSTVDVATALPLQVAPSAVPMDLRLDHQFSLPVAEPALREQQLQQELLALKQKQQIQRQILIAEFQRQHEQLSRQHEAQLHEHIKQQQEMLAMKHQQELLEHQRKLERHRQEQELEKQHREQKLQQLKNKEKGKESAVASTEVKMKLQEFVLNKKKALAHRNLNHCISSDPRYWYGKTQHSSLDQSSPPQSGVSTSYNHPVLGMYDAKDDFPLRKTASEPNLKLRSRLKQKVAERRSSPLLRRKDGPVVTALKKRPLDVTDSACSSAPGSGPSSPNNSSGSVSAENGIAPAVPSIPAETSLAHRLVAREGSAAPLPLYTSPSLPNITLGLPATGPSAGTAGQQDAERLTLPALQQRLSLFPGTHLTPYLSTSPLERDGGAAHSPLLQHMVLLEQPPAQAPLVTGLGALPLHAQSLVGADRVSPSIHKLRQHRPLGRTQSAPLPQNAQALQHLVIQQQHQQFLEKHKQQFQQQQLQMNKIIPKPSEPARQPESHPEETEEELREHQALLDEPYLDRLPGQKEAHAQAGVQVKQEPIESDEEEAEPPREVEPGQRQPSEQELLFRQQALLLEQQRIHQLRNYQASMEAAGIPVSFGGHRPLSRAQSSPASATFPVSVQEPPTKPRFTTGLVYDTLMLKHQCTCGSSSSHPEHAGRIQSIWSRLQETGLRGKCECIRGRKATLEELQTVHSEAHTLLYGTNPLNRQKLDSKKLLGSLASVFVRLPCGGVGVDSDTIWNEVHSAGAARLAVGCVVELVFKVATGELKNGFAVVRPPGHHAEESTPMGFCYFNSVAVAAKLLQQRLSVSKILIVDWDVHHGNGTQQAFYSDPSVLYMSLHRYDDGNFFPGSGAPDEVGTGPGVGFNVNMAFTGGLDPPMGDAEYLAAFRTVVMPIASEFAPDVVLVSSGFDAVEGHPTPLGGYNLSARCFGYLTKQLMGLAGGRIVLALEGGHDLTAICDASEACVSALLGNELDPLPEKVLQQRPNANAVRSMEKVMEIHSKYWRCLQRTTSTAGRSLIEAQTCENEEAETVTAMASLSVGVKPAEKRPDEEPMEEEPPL
HDAC9, sequence (Q9UKV0 whole entry): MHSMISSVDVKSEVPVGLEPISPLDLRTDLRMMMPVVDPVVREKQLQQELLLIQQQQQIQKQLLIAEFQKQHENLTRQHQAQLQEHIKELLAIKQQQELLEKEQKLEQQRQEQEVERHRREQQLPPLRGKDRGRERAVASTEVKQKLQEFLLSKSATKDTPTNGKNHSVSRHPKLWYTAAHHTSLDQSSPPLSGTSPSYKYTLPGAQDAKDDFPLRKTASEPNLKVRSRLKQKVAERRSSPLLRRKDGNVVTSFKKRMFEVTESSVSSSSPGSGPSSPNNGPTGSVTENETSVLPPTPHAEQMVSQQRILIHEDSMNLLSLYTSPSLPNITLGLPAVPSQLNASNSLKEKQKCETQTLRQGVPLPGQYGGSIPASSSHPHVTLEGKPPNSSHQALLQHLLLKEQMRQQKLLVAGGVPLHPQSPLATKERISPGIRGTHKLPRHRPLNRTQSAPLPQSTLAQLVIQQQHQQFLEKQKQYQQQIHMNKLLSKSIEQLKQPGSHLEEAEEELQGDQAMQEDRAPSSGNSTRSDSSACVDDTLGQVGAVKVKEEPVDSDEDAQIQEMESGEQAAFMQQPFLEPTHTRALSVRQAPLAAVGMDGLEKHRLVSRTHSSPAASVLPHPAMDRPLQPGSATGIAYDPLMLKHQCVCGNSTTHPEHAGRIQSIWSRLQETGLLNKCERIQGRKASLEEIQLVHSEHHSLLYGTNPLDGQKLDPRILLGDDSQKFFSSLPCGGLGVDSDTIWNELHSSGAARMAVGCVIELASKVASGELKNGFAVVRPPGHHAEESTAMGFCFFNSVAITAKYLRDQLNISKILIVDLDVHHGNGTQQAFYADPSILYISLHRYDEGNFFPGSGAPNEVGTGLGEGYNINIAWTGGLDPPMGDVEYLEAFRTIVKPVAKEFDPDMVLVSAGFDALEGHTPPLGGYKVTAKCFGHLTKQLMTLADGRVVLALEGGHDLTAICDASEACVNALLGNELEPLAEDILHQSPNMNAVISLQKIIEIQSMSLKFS

Row | SMILES | Experimental pIC50 (HDLP) | IC50 (HDLP) | Bioactivity range (ΔpIC50) DpIC50 (HDAC isoforms; range of pIC50 over the profiled HDAC isoforms) | Experimental activity (pKi), Exp (HIV-RT K103N) | Experimental activity (pKi), Exp (HIV-RT V106A) | Experimental activity (pKi), Exp (HIV-RT L100I) | Experimental activity (pKi), Exp (HIV-RT Y181I) | Experimental activity (pKi), Exp (HIV-RT Y188L) | Experimental activity (pKi), Exp (HIV-RT WT) | Exp. pIC50 (HDAC9) | Exp. pIC50 (HDAC4) | average pIC50 value, Exp. (HDAC isoforms; average over HDAC isoforms, MTS) | Exp. pIC50 (HDAC7) | Exp. pIC50 (HDAC5)
1 | CC(/C=C/C(=O)NO)=C\[C@H](C)C(=O)c1ccc(N(C)C)cc1 (stereo in doubt) [TSA, 7-(4-(Dimethylamino)phenyl)-N-hydroxy-4,6-dimethyl-7-oxo-2,4-heptadienamide] | 6.40 | 400 nM | 2.34 | – | – | – | – | – | – | – | – | – | – | –
2 | C/C=C/N(C)c1nc([C@H](C)c2c(F)cccc2F)c(C)c(=O)[nH]1 [(R)-MC1501] | – | – | – | 7.02 | 8.52 | 7.02 | 6.35 | 6.71 | 8.70 | – | – | – | – | –
3 | Cc1c(N)nc(Nc2ccc(C#N)cc2)nc1[C@H](C)c1c(F)cccc1F [(R)-MC2082] | – | – | – | 8.52 | 9.52 | 8.10 | 6.12 | 8.10 | 6.81 | – | – | – | – | –
4 | C/C=C/N(C)c1nc([C@@H](C)c2c(F)cccc2F)c(C)c(=O)[nH]1 [(S)-MC1501] | – | – | – | 6.01 | 6.45 | 4.40 | 4.40 | 4.40 | 6.93 | – | – | – | – | –
5 | Cc1c(N)nc(Nc2ccc(C#N)cc2)nc1[C@@H](C)c1c(F)cccc1F [(S)-MC2082] | – | – | – | 7.19 | 6.62 | 6.74 | 6.29 | 4.40 | 4.52 | – | – | – | – | –
6 | O=C(O)CCCc1ccccc1 [MCL-3] | – | – | – | – | – | – | – | – | – | 2.70 | 2.70 | 3.40 | 2.70 | 2.70
